Test results reported in PMC10287695, “Non-covalent inhibitors of thioredoxin glutathione reductase with schistosomicidal activity in vivo” (Nature Communications, 2023).
Where “and” joins values, the source holds several entries; their conditions need not be identical. Identical values can stand only once. Marks after values point to notes of the source that are not given here.

Columns and labels:
[1] = molecular target: T1, TGR (Schistosoma mansoni, UniProt Q962Y6); assay: Reversibility by jump dilution; format: biochemical
T1 construct: made in house
T1 sequence (Q962Y6 1-598): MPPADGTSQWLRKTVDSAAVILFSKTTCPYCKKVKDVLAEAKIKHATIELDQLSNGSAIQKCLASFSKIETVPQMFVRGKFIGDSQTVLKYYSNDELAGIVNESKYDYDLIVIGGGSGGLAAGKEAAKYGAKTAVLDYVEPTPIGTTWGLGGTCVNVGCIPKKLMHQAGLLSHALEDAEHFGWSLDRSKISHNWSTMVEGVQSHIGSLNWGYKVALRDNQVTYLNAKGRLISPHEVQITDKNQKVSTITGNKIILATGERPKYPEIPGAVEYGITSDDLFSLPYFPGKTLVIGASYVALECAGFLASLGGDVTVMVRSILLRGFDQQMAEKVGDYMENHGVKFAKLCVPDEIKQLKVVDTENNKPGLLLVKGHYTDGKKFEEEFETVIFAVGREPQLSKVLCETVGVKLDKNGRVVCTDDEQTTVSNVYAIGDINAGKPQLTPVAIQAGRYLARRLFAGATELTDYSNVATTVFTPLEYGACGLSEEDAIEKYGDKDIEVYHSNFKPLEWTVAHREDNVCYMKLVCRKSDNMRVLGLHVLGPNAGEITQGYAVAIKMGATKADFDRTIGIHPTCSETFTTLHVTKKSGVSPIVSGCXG
Description: A reaction of 370 nM TGR, 100 µM NADPH, and 250 µM inhibitor was incubated for 15 min at room temperature. A 100x dilution of the reaction was made and the activity was determined immediately and after 60 min.

[2] = molecular target: T1, TGR; assay: Thermal shift assay (TSA); format: binding; set-up: key to Avg. Tm / Tm, replicate 1-3: Tm in °C, from a 25–95 °C melt curve
[3] = test system: S. mansoni juvenile worms (21 days); assay: Schistosomicidal activity ex vivo, juvenile worms (21 days); format: cell-based
In short: (§1)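 Worms recovered from infected Swiss-Webster mice and cultured overnight, then exposed in triplicate to compounds in RPMI (juvenile, adult) at <1% DMSO; 5 µM AF as positive control. Viability calculated as test mean over DMSO-control mean ×100; adult worms read by CellTiter-Glo, alone or with channel blockers.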

[4] = test system: TGR in newly transformed schistosomula (NTS); assay: TGR inhibition in NTS with TRFS-Green fluorescent probe; format: cell-based, S. mansoni; conditions: 2 h with inhibitor (30 µM; AF 3 µM) then TRFS-Green 10 µM
In short: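 TGR activity in NTS was probed with the fluorescent reagent TRFS-Green. Parasites in M199 medium with glucose, antibiotics and heat-inactivated serum were kept overnight in clear-bottom plates, exposed to 10 µM probe for 4 h, then washed. Signal from probe uptake was read on a microplate imager (ex 438 nm, em 538 nm) hourly for 5 h and after 24 h.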

[5] = molecular target: T1, TGR; assay: Time dependence of inhibition; format: biochemical; conditions: panel c, replicates
Description: TGR was incubated at room temperature (up to 6 h) and at 4 °C for 6 to 24 h with 50 µM inhibitor and 100 µM NADPH for the indicated times. Then DTNB (3 mM) and NADPH (100 µM) were added, and the reaction was monitored at A412 for 5 min. The assay was done in triplicate.

[6] = test system: S. japonicum adult worms; assay: Schistosomicidal activity ex vivo, S. japonicum adult worms; format: cell-based
In short: as §1

[7] = Cytotoxicity in mammalian cells (Cell Titer Glo); format: cell-based; conditions: African green monkey, Vero cells
Description: Following overnight incubation, formulated DMSO-compound stock solutions were diluted with DMEM at <1% DMSO final concentrations. […] Vero cells treated similarly with different concentrations of PZQ, MZM and AF (Cayman Chemicals) were used as positive controls.

[8] = D0: diluted 1:100, activity determined immediately, list for plotting
[9] = D60: diluted 1:100, activity determined after 60 min, list for plotting

## C[C@@H]1[C@H]2C[C@@H](C[C@H]1NCc1nc3ccccc3n1C1CCCCCC1)C2(C)C [Compound 8]
[1]; [8]
  % Activity (ID list), D0: 90.8% and 93.4% and 92.5%
  % Inhibition (ID list), D0: 9.2% and 6.6% and 7.5%
[1]; [9]
  % Activity (ID list), D60: 93.9% and 90.9% and 93.8%
  % Inhibition (ID list), D60: 6.1% and 9.1% and 6.2%
[1]; [0, D0]: 15 min preincubation inhibitor + TGR + NADPH, diluted 1:100, then activity determined immediately, raw rate
  Inhibitor (rate), 0 min: 0.05404 and 0.05709 and 0.05725
[1]; [0, D0]: 15 min preincubation inhibitor + TGR + NADPH, diluted 1:100, then activity determined immediately, relative to DMSO
  % Activity, 0 min: 90.8083% and 93.3911% and 92.5327%
[1]; [60, D60]: 15 min preincubation inhibitor + TGR + NADPH, diluted 1:100, then activity determined after 60 min, raw rate
  Inhibitor (rate), 60 min: 0.05102 and 0.05246 and 0.05311
[1]; [60, D60]: 15 min preincubation inhibitor + TGR + NADPH, diluted 1:100, then activity determined after 60 min, relative to DMSO
  % Activity, 60 min: 93.9422% and 90.9343% and 93.8339%
[1]; [-15]: 15 min preincubation inhibitor + TGR + NADPH, then activity determined, raw rate, replicates
  Inhibitor (rate), -15: 0.005946 and 0.01664 and 0.01823
[1]; [-15]: 15 min preincubation inhibitor + TGR + NADPH, then activity determined, relative to DMSO, replicates
  % Activity, -15: 12.3643% and 34.0704% and 37.3107%
[1]; before dilution (-15), list for plotting
  % Inhibition (ID list): 77.7% and 75.9% and 68.7%
[2]; TGR + 100 µM compound
  Avg. Tm: 73.8333
[2]; TGR + 100 µM compound + 500 µM NADPH
  Avg. Tm, + 500 µM NADPH: 70
[2]; TGR + 100 µM compound + 500 µM NADPH, single replicates, in °C (unit assumed)
  Tm, replicate 1-3, + 500 µM NADPH: 69 and 70 and 71
[2]; TGR + 100 µM compound, single replicates
  Tm, replicate 1-3: 73.5 and 74 (2×)
[3]; Schistosoma mansoni, 23 day S. mansoni worms, 48 HR, Conc. 5 µM
  viability at 5 µM: 83.5%
[3]; Schistosoma mansoni, 23 day S. mansoni worms, 48 HR, Conc. 15 µM
  viability at 15 µM: 66%
[3]; Schistosoma mansoni, 23 day S. mansoni worms, 48 HR, Conc. 30 µM
  viability at 30 µM: 57.2%
[3]; juvenile worms, 48 h exposure
  LD50 ex vivo S. mansoni 21 days: >30^a µM
[4]
  TRFS-Green fluorescence in NTS: significant decreases in fluorescence
[5]; time 0 (time unit not given)
  TGR activity relative to dmso, time 0: 81.9258 and 91.2824 and 94.0371
[5]; time 5 (time unit not given)
  TGR activity relative to dmso, time 5: 16.4661 and 22.6942 and 32.7859
[5]; time 10 (time unit not given)
  TGR activity relative to dmso, time 10: 10.3137 and 9.575 and 9.146
[5]; time 15 (time unit not given)
  TGR activity relative to dmso, time 15: 4.106 and 4.258 and 6.77
[5]; time 30 (time unit not given)
  TGR activity relative to dmso, time 30: 0.4436 and 0.7059 and 0.3756
[6]; 48 h exposure
  LD50 ex vivo S. japonicum adult: 25.8 ± 1.87 µM
[6]; Schistosoma japonicum, S. japonicum adult worms, 48 hr, Conc. 5 µM
  viability at 5 µM: 70.6%
[6]; Schistosoma japonicum, S. japonicum adult worms, 48 hr, Conc. 15 µM
  viability at 15 µM: 60.8%
[6]; Schistosoma japonicum, S. japonicum adult worms, 48 hr, Conc. 30 µM
  viability at 30 µM: 43.4%
[7]; Conc. 1 µM
  viability at 24 h, 1 µM: 97%
[7]; Conc. 5 µM
  viability at 24 h, 5 µM: 93.8%
[7]; Conc. 10 µM
  viability at 24 h, 10 µM: 88.6%
[7]; Conc. 25 µM
  viability at 24 h, 25 µM: 69.7%
[7]; Conc. 50 µM
  viability at 24 h, 50 µM: 44.6%
[7]; Conc. 100 µM
  viability at 24 h, 100 µM: 4.99%
